Peptide text beside a SMILES is read from it.
Test: Body weight and normal-side kidney weight of tumor-bearing nude mice (toxic side effects)
Settings: for Body weight of tumor-bearing nude mice: mean ± SEM; for Body weight, End / Relative body weight, End / Kidney weight on normal side / Body weight, Start / Relative body weight, Start: mean±SEM; for Renal weight/body mass index on normal side / Kidney weight on normal side: left kidney, end of experiment
Description: Three days after the surgical modeling, the tumor-bearing mice were imaged with IVIS Spectrum CT in vivo, and the tumor-bearing mice were randomized over groups of 10 mice according to the luminescence intensity in the software analysis results.
Animals were observed daily and weighed every other day. Luminescence was detected with four times of in vivo imaging at day 1 (i.e., 3 days after surgical modeling), day 6, day 12 and day 15 from the experimental grouping. The time of in vivo imaging for luminescence detection was adjusted according to the survival and physical condition of the animals. At the end of the experiment (day 16) the animals were executed by neck dislocation, the kidney tissue and tumor masses was isolated for weighing and photographing, and the tumor masses were preserved in 4% formaldehyde solution for routine pathological testing.
The statistical analysis between groups was one-way ANOVA and Tukey’s test for pairwise comparison, and the statistical analysis between groups at different time points was two-way ANOVA and Bonferroni test for pairwise comparison.

With `CSCC[C@H](NC(=O)CNC(=O)CNC(=O)[C@H](CO)NC(=O)[C@H](CC(C)C)NC(=O)[C@@H]1CCCN1C(=O)[C@H](CO)NC(=O)[C@H](CC(N)=O)NC(=O)[C@H](CC(C)C)NC(=O)[C@H](C)NC(=O)[C@@H](NC(=O)[C@H](CC(C)C)NC(=O)[C@H](Cc1c[nH]cn1)NC(=O)[C@H](CC(C)C)NC(=O)[C@@H](NC(=O)[C@@H]1CCCN1C(=O)[C@H](CCC(N)=O)NC(=O)[C@H](Cc1ccccc1)NC(=O)[C@H](CC(=O)O)NC(=O)[C@H](CCCNC(=N)N)NC(=O)[C@H](Cc1c[nH]cn1)NC(=O)[C@H](CO)NC(=O)[C@H](Cc1c[nH]cn1)NC(=O)[C@H](CCSC)NC(=O)[C@H](CC(=O)O)NC(=O)CNC(=O)[C@H](CCCNC(=N)N)NC(=O)[C@H](CC(=O)O)NC(=O)CNC(=O)[C@@H](N)CCCNC(=N)N)C(C)C)C(C)C)C(=O)O` [HYD-PEP06] (H-RGDRGDMHSHRDFQPVLHLVALNSPLSGGM-OH) the “Body weight of tumor-bearing nude mice” value (5 mg/kg i.v. once a day, Day 1) was 20.8 ± 0.6 g, the “Body weight of tumor-bearing nude mice” value (5 mg/kg i.v. once a day, Day 4) was 21.8 ± 0.6 g and the “Body weight of tumor-bearing nude mice” value (5 mg/kg i.v. once a day, Day 7) was 21.2 ± 0.6 g. For the same compound, the “Body weight of tumor-bearing nude mice” value (5 mg/kg i.v. once a day, Day 10) was 20.9 ± 0.5 g, the “Body weight of tumor-bearing nude mice” value (5 mg/kg i.v. once a day, Day 13) was 21.1 ± 0.4 g and the “Body weight of tumor-bearing nude mice” value (5 mg/kg i.v. once a day, Day 16) was 21.0 ± 0.4 g. The “Body weight, End” value (5 mg/kg i.v. x15) was 21.0 ± 0.4 g, the “Relative body weight, End” value (5 mg/kg i.v. x15) was 101.6 ± 1.9% and the “Renal weight/body mass index on normal side” value (“Renal weight/body mass index” for short) (5 mg/kg i.v. x15) was 0.85+0.01%. The “Kidney weight on normal side” value (5 mg/kg i.v. x15) was 0.178 ± 0.003 g, the “Body weight, Start” value (5 mg/kg i.v. x15) was 20.8 ± 0.6 g and the “Relative body weight, Start” value (5 mg/kg i.v. x15) was 100.0±0.0%. The “Body weight of tumor-bearing nude mice” value (10 mg/kg i.v. once a day, Day 1) was 20.2 ± 0.4 g, the “Body weight of tumor-bearing nude mice” value (10 mg/kg i.v. once a day, Day 4) was 21.9 ± 0.3 g and the “Body weight of tumor-bearing nude mice” value (10 mg/kg i.v. once a day, Day 7) was 21.1 ± 0.3 g. For the same compound, the “Body weight of tumor-bearing nude mice” value (10 mg/kg i.v. once a day, Day 10) was 21.2 ± 0.3 g, the “Body weight of tumor-bearing nude mice” value (10 mg/kg i.v. once a day, Day 13) was 21.3 ± 0.2 g and the “Body weight of tumor-bearing nude mice” value (10 mg/kg i.v. once a day, Day 16) was 21.0 ± 0.4 g. For the same compound, the “Body weight, End” value (10 mg/kg i.v. x15) was 21.0 ± 0.4 g, the “Relative body weight, End” value (10 mg/kg i.v. x15) was 104.0±2.2% and the “Renal weight/body mass index” value (10 mg/kg i.v. x15) was 0.85±0.02%. For the same compound, the “Kidney weight on normal side” value (10 mg/kg i.v. x15) was 0.178 ± 0.006 g, the “Body weight, Start” value (10 mg/kg i.v. x15) was 20.2 ± 0.4 g and the “Relative body weight, Start” value (10 mg/kg i.v. x15) was 100.0±0.0%. The “Body weight of tumor-bearing nude mice” value (20 mg/kg i.v. once a day, Day 1) was 20.3 ± 0.4 g, the “Body weight of tumor-bearing nude mice” value (20 mg/kg i.v. once a day, Day 4) was 21.6 ± 0.4 g and the “Body weight of tumor-bearing nude mice” value (20 mg/kg i.v. once a day, Day 7) was 20.9 ± 0.5 g. The “Body weight of tumor-bearing nude mice” value (20 mg/kg i.v. once a day, Day 10) was 20.9 ± 0.5 g, the “Body weight of tumor-bearing nude mice” value (20 mg/kg i.v. once a day, Day 13) was 21.3 ± 0.6 g and the “Body weight of tumor-bearing nude mice” value (20 mg/kg i.v. once a day, Day 16) was 21.3 ± 0.6 g. The “Body weight, End” value (20 mg/kg i.v. x15) was 21.3 ± 0.6 g, the “Relative body weight, End” value (20 mg/kg i.v. x15) was 104.9±3.3% and the “Renal weight/body mass index” value (20 mg/kg i.v. x15) was 0.86+0.01%. For the same compound, the “Kidney weight on normal side” value (20 mg/kg i.v. x15) was 0.182 ± 0.005 g, the “Body weight, Start” value (20 mg/kg i.v. x15) was 20.3 ± 0.4 g and the “Relative body weight, Start” value (20 mg/kg i.v. x15) was 100.0±0.0%. For the same compound, the “Kidney weight, kidney weight/body mass index in the normal side (left side) and body weight vs model control group” value (5, 10, 20 mg/kg i.v. x15) was “No significant differences” and the Toxic side effects (at the effective dose (5-20 mg/kg i.v. x15)) was “did not show significant toxic side effects”.
